# Reference: ChEMBL document CHEMBL1132675, “New pyrrole derivatives as antimycobacterial agents analogs of BM212” (1999)
# The source made the active and inactive calls. The rule behind the calls is not given here.
# Legend:
# [1] = system: Mycolicibacterium smegmatis; assay: In vitro antibacterial activity against Mycobacterium smegmatis 103599; format: functional
# [2] = system: Mycobacterium gordonae; assay: In vitro antibacterial activity against Mycobacterium gordonae 6427; format: functional
# [3] = system: Vero; assay: In vitro cytotoxicity against vero cells; format: functional, Chlorocebus sabaeus
# [4] = system: Candida; assay: Compound was tested for activity against Candida sp; Inactive; format: functional, organism-based
# [5] = system: Mycobacterium marinum; assay: In vitro antibacterial activity against Mycobacterium marinum 6423; format: functional
# [6] = system: Mycobacterium tuberculosis; assay: In vitro antibacterial activity against Mycobacterium tuberculosis 103471; format: functional
# [7] = system: Mycobacterium avium; assay: In vitro antibacterial activity against Mycobacterium avium 103317; format: functional
# [8] = system: Candida albicans; assay: Compound was tested for activity against Candida albicans; Inactive; format: functional, organism-based
# [9] = system: Mycobacterium gordonae; assay: In vitro antibacterial activity agains Mycobacterium gordonae 6427; format: functional
SMILES,MIC [1],MIC [2],MTD50 [3],MIC [4],MIC [5],MIC [6],MIC [7],MIC [8],MIC [9]
Cc1c(CN2CCSCC2)cc(-c2ccc(Cl)cc2)n1-c1ccc(Cl)cc1,> 16 µg/mL,> 16 µg/mL,32 µg/mL,inactive,> 16 µg/mL,4 µg/mL,> 16 µg/mL,inactive,
Cc1c(CN2CCN(C)CC2)cc(-c2ccccc2)n1-c1ccc(Cl)cc1,8 µg/mL,8 µg/mL,4 µg/mL,inactive,1 µg/mL,4 µg/mL,16 µg/mL,inactive,
CO[C@H]1/C=C/O[C@@]2(C)Oc3c(C)c(O)c4c(O)c(c(/C=N/N5CCN(C)CC5)c(O)c4c3C2=O)NC(=O)/C(C)=C\C=C\[C@H](C)[C@H](O)[C@@H](C)[C@@H](O)[C@@H](C)[C@H](OC(C)=O)[C@@H]1C [RIFAMPIN],32 µg/mL,0.6 µg/mL,64 µg/mL,,0.6 µg/mL,0.3 µg/mL,0.3 µg/mL,,
Cc1c(CN2CCN(C)CC2)cc(-c2ccc(Cl)cc2)n1-c1ccc(Cl)cc1,25 µg/mL,,4 µg/mL,,100 µg/mL,0.7 µg/mL,0.4 µg/mL,,> 100 µg/mL
CN[C@@H]1[C@H](O[C@H]2[C@H](O[C@H]3[C@H](O)[C@@H](O)[C@H](N=C(N)N)[C@@H](O)[C@@H]3N=C(N)N)O[C@@H](C)[C@]2(O)C=O)O[C@@H](CO)[C@H](O)[C@H]1O [STREPTOMYCIN],8 µg/mL,16 µg/mL,>64 µg/mL,,32 µg/mL,0.5 µg/mL,8 µg/mL,,
NNC(=O)c1ccncc1 [ISONIAZID],64 µg/mL,32 µg/mL,32 µg/mL,,16 µg/mL,0.25 µg/mL,32 µg/mL,,
Cc1c(CN2CCSCC2)cc(-c2ccccc2)n1-c1ccc(Cl)cc1,16 µg/mL,> 16 µg/mL,8 µg/mL,inactive,8 µg/mL,2 µg/mL,16 µg/mL,inactive,
Cc1c(CN2CCN(C)CC2)cc(-c2ccc(Cl)cc2)n1-c1ccccc1,8 µg/mL,16 µg/mL,4 µg/mL,inactive,16 µg/mL,4 µg/mL,16 µg/mL,inactive,
Cc1c(CN2CCSCC2)cc(-c2ccc(Cl)cc2)n1-c1ccccc1,> 16 µg/mL,> 16 µg/mL,4 µg/mL,inactive,> 16 µg/mL,2 µg/mL,> 16 µg/mL,inactive,
